From ChEMBL document CHEMBL1201862, “PubChem BioAssay data set” (2004)
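Interpolation was linear, between the two tested concentrations surrounding the appropriate level; five concentrations were tested over 48 hours in 96-well plates. GI50: concentration for 50% inhibition of growth.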 Calls of active or inactive are those of the source. Rule as the data show it: active = GI50 up to about 1.1 µM and inactive = higher.

Key:
Assay in all cases: inhibition of tumour cell growth, NCI panel, 48 h
K562 = test system: K562
U-251 = test system: U-251
NCI/ADR-RES = test system: NCI/ADR-RES
HCC 2998 = test system: HCC 2998
NCI-H522 = test system: NCI-H522
M14 = test system: M14
SR = test system: SR
786-0 = test system: 786-0
HL-60 = test system: HL-60
A498 = test system: A498
DU-145 = test system: DU-145
UO-31 = test system: UO-31
MCF7 = test system: MCF7
MDA-MB-435 = test system: MDA-MB-435
EKVX = test system: EKVX
MDA-N = test system: MDA-N
SF-268 = test system: SF-268
UACC-257 = test system: UACC-257
Hs-578T = test system: Hs-578T
DLD-1 = test system: DLD-1

Measured: GI50

O=c1cc(/N=N\c2ccc(Cl)c(Cl)c2)[nH]c(=O)[nH]1
active: K562 0.977 µM | NCI-H522 1.07 µM | SR 0.337 µM | HL-60 0.292 µM
inactive: U-251 1.87 µM | NCI/ADR-RES 1.85 µM | HCC 2998 2.45 µM | M14 1.93 µM | 786-0 1.51 µM | A498 15.3 µM | DU-145 2.94 µM | UO-31 2.07 µM | MCF7 1.64 µM | MDA-MB-435 6.55 µM | EKVX 1.6 µM | MDA-N 1.8 µM | SF-268 2.88 µM | UACC-257 2.38 µM | Hs-578T 2.57 µM

CC[C@H](C)[C@H]1NC(=O)[C@@H](NC(=O)[C@@H](CC(C)C)N(C)C(=O)C2CCCN2C(=O)[C@H](C)O)[C@@H](C)OC(=O)[C@H](Cc2ccc(OC)cc2)N(C)C(=O)[C@@H]2CCCN2C(=O)[C@H](CCCCNC(=O)OCc2ccccc2)NC(=O)[C@H](C)C(=O)[C@H](C(C)C)OC(=O)C[C@@H]1O (some centres not stated)
inactive: K562 7.29 µM | U-251 3.55 µM | NCI/ADR-RES > 25 µM | HCC 2998 2.73 µM | NCI-H522 3.37 µM | M14 4.13 µM | SR 12.2 µM | 786-0 5.56 µM | HL-60 > 25 µM | A498 > 25 µM | DU-145 9.84 µM | UO-31 23.4 µM | MCF7 2.77 µM | MDA-MB-435 5.86 µM | EKVX 5.38 µM | MDA-N 5.68 µM | SF-268 3.91 µM | UACC-257 2.49 µM | Hs-578T 1.41 µM

COC(=O)/C=C(/C(=O)OC)c1c(C)c(C)c2c(C)cc(C)cc(C)c1-2
inactive: K562 > 100 µM | U-251 26.9 µM | NCI/ADR-RES 15.2 µM | HCC 2998 21.3 µM | NCI-H522 12.2 µM | M14 8.93 µM | SR 45.5 µM | 786-0 > 100 µM | HL-60 > 100 µM | A498 97.9 µM | DU-145 36.9 µM | UO-31 13.6 µM | MCF7 25.2 µM | MDA-MB-435 4.6 µM | EKVX 59.7 µM | MDA-N 2.24 µM | SF-268 > 100 µM | UACC-257 22 µM | Hs-578T 8.99 µM

Cc1ccc(Nc2nc3c(s2)C(=O)c2ccccc2C3=O)c(C)c1
inactive: K562 10.9 µM | U-251 18.9 µM | HCC 2998 17.2 µM | NCI-H522 3.14 µM | M14 14.3 µM | DLD-1 15.1 µM | 786-0 17.5 µM | HL-60 2.19 µM | A498 34 µM | UO-31 14.3 µM | EKVX 18.3 µM | SF-268 11.1 µM | UACC-257 8.13 µM

S=C(/N=C1/NCC(CN2CCN(c3ccccc3)CC2)O1)Nc1ccccc1 (configuration not stated)
inactive: K562 35.2 µM | U-251 55.3 µM | NCI/ADR-RES > 100 µM | HCC 2998 57.9 µM | NCI-H522 > 100 µM | M14 > 100 µM | SR 34.6 µM | 786-0 76.7 µM | HL-60 29 µM | A498 > 100 µM | DU-145 56.9 µM | UO-31 11.6 µM | MCF7 38.4 µM | MDA-MB-435 70.8 µM | EKVX > 100 µM | MDA-N > 100 µM | SF-268 > 100 µM | UACC-257 > 100 µM | Hs-578T > 100 µM

COc1ccc(-n2c(Cn3nnc(-c4cccnc4)n3)nn(C3OC(COC(=O)c4ccccc4)C(OC(=O)c4ccccc4)C3OC(=O)c3ccccc3)c2=S)cc1 (configuration not stated)
inactive: K562 > 100 µM | U-251 > 100 µM | NCI/ADR-RES > 100 µM | HCC 2998 > 100 µM | NCI-H522 > 100 µM | M14 > 100 µM | SR > 100 µM | 786-0 > 100 µM | HL-60 > 100 µM | A498 > 100 µM | DU-145 > 100 µM | UO-31 > 100 µM | MCF7 > 100 µM | MDA-MB-435 > 100 µM | EKVX 39.4 µM | MDA-N > 100 µM | SF-268 > 100 µM | UACC-257 > 100 µM | Hs-578T > 100 µM

O=C(O)COc1cccc2ccccc(=O)c12
inactive: K562 > 100 µM | U-251 > 100 µM | NCI/ADR-RES > 100 µM | HCC 2998 > 100 µM | NCI-H522 > 100 µM | M14 > 100 µM | SR > 100 µM | 786-0 > 100 µM | HL-60 > 100 µM | A498 > 100 µM | DU-145 > 100 µM | UO-31 > 100 µM | MCF7 > 100 µM | MDA-MB-435 > 100 µM | EKVX > 100 µM | MDA-N > 100 µM | SF-268 > 100 µM | UACC-257 > 100 µM | Hs-578T > 100 µM
